Experiments:
[1] = target: T1, 5-hydroxytryptamine receptor 6 (Homo sapiens, UniProt P50406); assay: Radioligand Labeled Binding Assay; settings: pH 7.4; 22 °C
Protocol: (§1) IC50 values for each test compound were determined from nonlinear regression analysis of data collected from ligand binding experiments. The inhibition constant (Ki) was calculated from IC50 value by the Cheng and Prusoff equation.

[2] = target: T1, 5-hydroxytryptamine receptor 6; assay: Radioligand Labeled Binding Assay and cAMP Production; settings: pH 7.4; 22 °C
Protocol: as §1

T1 sequence (P50406 whole entry): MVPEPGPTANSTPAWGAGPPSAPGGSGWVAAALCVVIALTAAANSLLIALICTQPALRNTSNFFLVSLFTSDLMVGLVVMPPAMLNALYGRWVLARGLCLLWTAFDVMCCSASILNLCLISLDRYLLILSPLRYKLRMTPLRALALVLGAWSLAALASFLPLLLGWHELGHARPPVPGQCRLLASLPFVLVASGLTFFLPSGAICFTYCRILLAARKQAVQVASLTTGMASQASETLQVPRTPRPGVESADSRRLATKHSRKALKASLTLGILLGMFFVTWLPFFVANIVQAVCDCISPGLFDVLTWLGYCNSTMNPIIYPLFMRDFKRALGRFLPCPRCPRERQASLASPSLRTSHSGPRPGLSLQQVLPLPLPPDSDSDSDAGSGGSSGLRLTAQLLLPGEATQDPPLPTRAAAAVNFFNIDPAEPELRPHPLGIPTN

Row | SMILES | Ki [1] | EC50 [2] | Ki [2]
1 | NC(N)=NN=Cc1c[nH]c2ccc(Br)cc12 [3-[(E)-[(5-bromo-1H-indol-3-yl)methylidene]amino]guanidine] | 25 nM |  | 
2 | COc1ccc(S(=O)(=O)n2cc(CCN)c3ccccc32)cc1OC [2-{1-[(3,4-dimethoxybenzene)sulfonyl]-1H-indol-3-yl}ethan-1-amine] |  | 17.5 nM | 
3 | CC(=NNC(=N)N)c1cn(S(=O)(=O)c2ccccc2)c2ccccc12 [3-[(E)-{1-[1-(benzenesulfonyl)-1H-indol-3-yl]ethylidene}amino]guanidine] | 8 nM |  | 
4 | Cc1nc(N)sc1S(=O)(=O)n1cc(CCN)c2ccccc21 [5-{[3-(2-aminoethyl)-1H-indole-1-]sulfonyl}-4-methyl-1,3-thiazol-2-amine] |  | 9.6 nM | 10 nM

Source: BindingDB's records for doi:10.1021/jm070521y (Wyeth Research, 2007)
